Test results reported in PMC10464297, “Reevaluation of bromodomain ligands targeting BAZ2A” (Protein Science : A Publication of the Protein Society, 2023).
Entries after “also recorded” stand apart in the source; their conditions may differ.

What was measured:
Assay type in all cases: cell-based
22Rv1 spheroids = assay: Spheroid growth (3D), 22Rv1
Procedure: (§1) Cell cultures, proliferation assay and spheroid gro wth
PC3 and 22Rv1 cells were cultured in RPMI 1640 medium containing 10% FBS, 1% penicillin-streptomycin and 2 m M L-glutamine. All cells were regularly tested for mycoplasma contamination. […]
Spheroids were obtained by plating PC3 and 22Rv1 cells in low -adhesion round bottom 96 -well plates. For 22Rv1, 2500 cells/well were seeded in 200 µl RPMI 1640; for PC3, 250 cells/well were seeded in 200 µl RPMI 1640 supplemented with 1.5% Matrigel. After seeding, the cells were centrifuged for 10 min at 1200 x g at 4°C. Spheroids were given 48 hours to form after seeding before adding the treatment or the carrier (0.1% DMSO). Medium supplemented with treatment/carrier was changed every 48 hours, for a total of 32 days for 22Rv1 and 16 days for PC3. Each spheroid was imaged in brightfield every day or every other day (after day 20), using a Leica DM IL microscope […]
equipped with a Leica DFC450C digital camera. The area of each spheroid was measured using ImageJ and the average area for each condition was calculated. The growth rate was analysed using the segmental linear regression algorithm of GraphPad Prism. The appropriateness of the model was evaluated by considering the R square values and the Replicates test (Suppl. Table 6). […]

[1] = system: PC3 (AR‐negative) PCa cells; assay: 2D proliferation assay (resazurin), PC3
Procedure: Cell cultures, proliferation assay and spheroid gro wth […]
streptomycin and 2 m M L-glutamine. All cells were regularly tested for mycoplasma contamination.
For the proliferation assay, cells were counted with a hemocytometer and seeded in triplicates in 96-well plates (4 .5x10^3 cells/well for 22Rv1 and 2.0x103 for PC3) and let adhere overnight at 37°C, […]
(§2) transfected with siRNA for BAZ2A , RLUC or KIF11, as detailed below. The cells were incubated for 1, 3, 6 (PC3) and 9 days (22Rv1) and the medium containing either the carrier or the inhibitors was replaced every 3 day s. Cell proliferation and viability were determined at day 1, 3, 6 and 9 by adding 10% resazurin sodium salt solution (0. 03 mg/ml powder from Sigma -Aldrich) directly into each well and incubating them for 4h at 37°C, 5% CO 2. The absorbance at 570/600 nm was measured using a Varioskan plate reader. The reduction of the resazur in sodium salt was calculated using the formula: (Abs x – Abs 0. 1%DMSO day1)/(Abs 0. 1%DMSO day9 - Abs 0. 1%DMSO day1). The growth rate was analysed using the linear regression algorithm of GraphPad Prism. […]

[2] = system: 22Rv1 (AR‐positive) PCa cells; assay: 2D proliferation assay (resazurin), 22Rv1
Procedure: as §1
PC3 and 22Rv1 cells were cultured in RPMI 1640 medium containing 10% FBS, 1% penicillin-streptomycin and 2 m M L-glutamine. All cells were regularly tested for mycoplasma contamination.
For the proliferation assay, cells were counted with a hemocytometer and seeded in triplicates in 96-well plates (4 .5x10^3 cells/well for 22Rv1 and 2.0x103 for PC3) and let adhere overnight at 37°C, 5% CO2. The following day, the medium was replaced with RPMI 1640 containing either the carrier […]
as §2

Cn1cc(CCn2cnc(-c3cnn(C)c3)c2-c2ccc(C#N)cc2)cn1 [BAZ2‐ICR]
effect on growth of 22Rv1 spheroids (22Rv1 spheroids; 3D setting, GSK2801 25 μM, BAZ2‐ICR 25 μM, BI9564 20 μM): similarly affect the growth of 22Rv1 cells; also recorded: interestingly impacting those deriving from 22Rv1 cells
slope2 (segmental linear regression of spheroid growth) (22Rv1 spheroids; 22Rv1 spheroids, 25 µM, after X0 = day 9): 10618
slope1 (segmental linear regression of spheroid growth) (22Rv1 spheroids; 22Rv1 spheroids, 25 µM, before X0 = day 9): 17642
effect on 2D growth of PC3 cells ([1]; 2D‐cell culture, PC3): did not affect growth; also recorded: but not BAZ2‐ICR, reduces 2D growth
effect on viability of PC3 cells ([1]; 2D‐cell culture, PC3): did not affect growth or viability
Slope (best-fit, linear regression of growth curve) ([1]; PC3, 0.5 µM): 0,1625
Slope (best-fit, linear regression of growth curve) ([1]; PC3, 5 µM): 0,1599
Slope (best-fit, linear regression of growth curve) ([1]; PC3, 10 µM): 0,1532
Slope (best-fit, linear regression of growth curve) ([1]; PC3, 25 µM): 0,1580
effect on 2D growth of 22Rv1 cells ([2]; 2D‐cell culture, 22Rv1): did not affect growth; also recorded: but not BAZ2‐ICR, reduces 2D growth
effect on viability of 22Rv1 cells ([2]; 2D‐cell culture, 22Rv1): did not affect growth or viability
Slope (best-fit, linear regression of growth curve) ([2]; 22Rv1, 0.5 µM): 0,1041
Slope (best-fit, linear regression of growth curve) ([2]; 22Rv1, 5 µM): 0,1046
Slope (best-fit, linear regression of growth curve) ([2]; 22Rv1, 10 µM): 0,1034
Slope (best-fit, linear regression of growth curve) ([2]; 22Rv1, 25 µM): 0,1066
